We go through 14 molecules from patent publication US10322032B2, “Absorbent article comprising a fragrance or odor control composition” (The Procter & Gamble Company, priority 2013, dated 2019).

A short description of data set [1]: log P, n-octanol/water partition coefficient (EPA OPPTS 830.7550 shake flask method). In kind it is physicochemical. The note with it: partitioning between octanol and water; for logP: n-octanol/water. From the text:
The use of log P values is well known in the chemical arts as representing the relative affinity that a material has for partitioning between octanol and water, so that a material that partitions more readily into octanol would tend to be more lipophillic and have a higher log P value than a material that partitions less readily into octanol. […] 1996, under the title “Product Properties Test Guidelines—OPPTS 830.7550 Partition Coefficient (n-Octanol/Water), Shake flask method.” which description is incorporated herein by reference. In following this EPA method in all instances where a recommended procedure is described (such as number of rotations of the shaker) the recommended procedure should be followed. For the analytical determination of the substance in the two phases a skilled person will know what analytical method to use, gas chromatography (GC) can be preferably used, while HPLC can be used in case GC is not suitable.

Data set [2] is described as follows: Kovats Retention Index by gas chromatography on DB-5 column against n-alkane standards. In kind it is physicochemical. The note with it: GC, non-isothermal, C8-C22 n-alkane standards. From the text: Kovats Index as it is known in the art, is defined as the selective retention of perfume raw materials (PRMs) onto chromatographic columns based on the retention volume of the substance with respect to that to a homologous series of n-alkane standards.
The Kovats Index in the present application can be experimentally derived using an Agilent Technologies 6890 gas chromatogram with Flame Ionization Detector (FID), or equivalent using a DB-5 (5% phenyl-methylpolysiloxane) column 30 m×0.25 mm i.d., with a 0.25 micron film thickness available from Agilent Technologies. Chromatographic conditions are 1 mL/min of helium carrier with constant flow programming, a temperature program of 50° C. to 300° C. at […] temperature 350° C., split injection at 300° C. Different chromatographic conditions may be required to achieve separation of the analytes of interest and can be readily adjusted by one skilled in the art. A linear alkane hydrocarbon standard mix (C8-C22 available from Aldrich Chemical Company or equivalent) is injected and the retention time for each component is recorded. The test sample (appropriately diluted in a suitable solvent) is injected under the same conditions, and the retention time for each component of interest is recorded. The Kovats Index under non-isothermal conditions is calculated for each component of interest in the test sample using the equation: KI=100n+100[(tsubstance−tn)/(tn+1−tn)] Where: • t=the uncorrected retention time of a peak • unknown=the peak of interest • n=the number of carbon atoms in the smaller alkane whose peak is adjacent to the peak of interest

Each structure is given as a SMILES string.

Take `CCCCC(CC)COC(=O)c1ccccc1O` (stereo not shown) [2-Ethylhexyl salicylate]: in data set [1], the logP was determined as 4.92. In addition, the “KI (Kovats Retention Index)” value in data set [2] was determined as 1889.5.

`O=C(OCc1ccccc1)c1ccccc1O` [Benzyl salicylate] registered a logP in data set [1] of 3.56. The “KI (Kovats Retention Index)” value in data set [2] stood at 1920.3.

Molecule `CCCCOC(=O)c1ccccc1O` [Butyl salicylate] returned a logP in data set [1] of 3.58. Further, the “KI (Kovats Retention Index)” value in data set [2] came to 1572.9.

In data set [1], `O=C(OC1CCCCC1)c1ccccc1O` [Cyclohexyl salicylate] had a lipophilicity (logP) of 4.15. Moreover, the “KI (Kovats Retention Index)” value in data set [2] is 1821.

Molecule `O=C1CCCCCCCCCCCCCCO1` [Exaltolide] registered a logP in data set [1] of 4.81. Moreover, the “KI (Kovats Retention Index)” value in data set [2] is 1882.

`O=C1CCCCCCCCC/C=C/CCCO1` [Habanolide]: the “Log P” value in data set [1] is reported as 4.32. Moreover, the “KI (Kovats Retention Index)” value in data set [2] worked out at 1862.9.

On to `CCC(=O)OCC(C)(C)OC(C)C1CCCC(C)(C)C1` (stereo not shown) [Helvetolide], for which the “Log P” value in data set [1] was found to be 5.56. In addition, the “KI (Kovats Retention Index)” value in data set [2] is 1773.

As for `CC(C)CCOC(=O)c1ccccc1O` [Isoamyl salicylate], the logP in data set [1] stood at 3.74. For the same molecule, the “KI (Kovats Retention Index)” value in data set [2] amounted to 1616.4.

In the case of `O=C(Oc1ccccc1)c1ccccc1O` [Phenyl salicylate], the logP in data set [1] stood at 3.49. Also, the “KI (Kovats Retention Index)” value in data set [2] amounted to 1851.1.

Consider `CC(C)=CCOC(=O)c1ccccc1O` [Prenyl salicylate], for which the logP in data set [1] was found to be 3.05. Besides, in data set [2], the “KI (Kovats Retention Index)” value was 1655.3.

Consider `CCCCCOC(=O)c1ccccc1O` [amyl salicylate], for which the logP in data set [1] amounted to 4.09. For the same molecule, the “KI (Kovats Retention Index)” value in data set [2] was 1668.8.

As for `CCCCCCOC(=O)c1ccccc1O` [n-Hexyl salicylate], the logP in data set [1] was 4.58. In addition, the “KI (Kovats Retention Index)” value in data set [2] turned out to be 1765.1.

In the case of `Cc1ccc(OC(=O)c2ccccc2O)cc1` [p-Cresyl salicylate], the logP in data set [1] came to 4.06. Also, the “KI (Kovats Retention Index)” value in data set [2] is given as 1944.5.

In the case of `O=C1CCCCC/C=C/CCCCCCCCO1` [trans-ambrettolide], in data set [1], the “Log P” value stood at 4.64. For the same molecule, the “KI (Kovats Retention Index)” value in data set [2] came out at 1961.1.
